Organism: Rattus norvegicus
Experiment: DrugMatrix - Regimen: Daily Repeat
Assay type: toxicity, organism-based, Sprague-Dawley
Parameters: regimen Daily Repeat, gender Male, age 6-8 weeks
Details: in vivo, vehicle 100 % SALINE; for SODIUM / TOTAL BILIRUBIN / TOTAL PROTEIN / URIC ACID / ALANINE AMINOTRANSFERASE / ALBUMIN / ALKALINE PHOSPHATASE / ASPARTATE AMINOTRANSFERASE / BLOOD UREA NITROGEN / CARBON DIOXIDE / CHLORIDE / CHOLESTEROL / CREATINE PHOSPHOKINASE / CREATININE / GLUCOSE / LACTATE DEHYDROGENASE / LIPASE / PHOSPHORUS / POTASSIUM: tissue Plasma; for ABSOLUTE BASOPHIL / ABSOLUTE EOSINOPHIL / ABSOLUTE LYMPHOCYTE / ABSOLUTE MONOCYTE / ABSOLUTE SEGMENTED NEUTROPHIL / BASOPHIL / EOSINOPHIL / ERYTHROCYTE COUNT / HEMATOCRIT / HEMOGLOBIN / LEUKOCYTE COUNT / LYMPHOCYTE / MEAN CORPUSCULAR HEMOGLOBIN / MEAN CORPUSCULAR HEMOGLOBIN CONCENTRATION / MEAN CORPUSCULAR VOLUME / MONOCYTE / NEUTROPHIL / NUCLEATED RED BLOOD CELLS / PLATELET COUNT: tissue Blood
[1] = ip, 40 mg/kg, […], route intraperitoneal, dose level High, time 28 day
[2] = iv, 41 mg/kg, 72 h, dose level High, time 3 day
[3] = iv, 41 mg/kg, 120 h, dose level High, time 5 day
[4] = iv, […], 72 h, dose 4.1 mg/Kg, dose level Low, time 3 day
[5] = iv, […], 120 h, dose 4.1 mg/Kg, dose level Low, time 5 day

Structure (SMILES): CCN[C@@H]1C[C@H](N)[C@@H](O[C@H]2OC(CN)=CC[C@H]2N)[C@H](O)[C@H]1O[C@H]1OC[C@](C)(O)[C@H](NC)[C@H]1O [NETILMICIN]
- SODIUM [1]: 152.1 MEQ/L
- TOTAL BILIRUBIN [1]: 0.18 mg/dL
- TOTAL PROTEIN [1]: 6.45 G/DL
- URIC ACID [1]: 1.03 mg/dL
- ABSOLUTE BASOPHIL [2]: 0 CELLS/uL
- ABSOLUTE EOSINOPHIL [2]: 0 CELLS/uL
- ABSOLUTE LYMPHOCYTE [2]: 13244.67 CELLS/uL
- ABSOLUTE MONOCYTE [2]: 92.33 CELLS/uL
- ABSOLUTE SEGMENTED NEUTROPHIL [2]: 896.33 CELLS/uL
- BASOPHIL [2]: 0%
- EOSINOPHIL [2]: 0%
- ERYTHROCYTE COUNT [2]: 5.54 x10E6/uL
- HEMATOCRIT [2]: 34.4%
- HEMOGLOBIN [2]: 13.9 G/DL
- LEUKOCYTE COUNT [2]: 14.23 x10E3/uL
- LYMPHOCYTE [2]: 93%
- MEAN CORPUSCULAR HEMOGLOBIN [2]: 25.07 pg
- MEAN CORPUSCULAR HEMOGLOBIN CONCENTRATION [2]: 40.4 G/DL
- MEAN CORPUSCULAR VOLUME [2]: 62.1 fL
- MONOCYTE [2]: 0.67%
- NEUTROPHIL [2]: 6.33%
- NUCLEATED RED BLOOD CELLS [2]: 0 /100WBC
- PLATELET COUNT [2]: 1289.67 x10E3/uL
- ALANINE AMINOTRANSFERASE [2]: 47 u/L
- ALBUMIN [2]: 4.27 G/DL
- ALKALINE PHOSPHATASE [2]: 408.33 u/L
- ASPARTATE AMINOTRANSFERASE [2]: 78.67 u/L
- BLOOD UREA NITROGEN [2]: 16.33 mg/dL
- CARBON DIOXIDE [2]: 32 mmol/L
- CHLORIDE [2]: 102.67 MEQ/L
- CHOLESTEROL [2]: 64.33 mg/dL
- CREATINE PHOSPHOKINASE [2]: 176 u/L
- CREATININE [2]: 0.16 mg/dL
- GLUCOSE [2]: 156.33 mg/dL
- LACTATE DEHYDROGENASE [2]: 111.67 u/L
- LIPASE [2]: 9.33 u/L
- PHOSPHORUS [2]: 12.53 mg/dL
- POTASSIUM [2]: 7.26 MEQ/L
- SODIUM [2]: 144.53 MEQ/L
- TOTAL BILIRUBIN [2]: 0.23 mg/dL
- TOTAL PROTEIN [2]: 5.97 G/DL
- URIC ACID [2]: 1.77 mg/dL
- ABSOLUTE BASOPHIL [3]: 0 CELLS/uL
- ABSOLUTE EOSINOPHIL [3]: 0 CELLS/uL
- ABSOLUTE LYMPHOCYTE [3]: 14425.67 CELLS/uL
- ABSOLUTE MONOCYTE [3]: 210.67 CELLS/uL
- ABSOLUTE SEGMENTED NEUTROPHIL [3]: 463.67 CELLS/uL
- BASOPHIL [3]: 0%
- EOSINOPHIL [3]: 0%
- ERYTHROCYTE COUNT [3]: 5.76 x10E6/uL
- HEMATOCRIT [3]: 36.3%
- HEMOGLOBIN [3]: 14.47 G/DL
- LEUKOCYTE COUNT [3]: 15.1 x10E3/uL
- LYMPHOCYTE [3]: 95.67%
- MEAN CORPUSCULAR HEMOGLOBIN [3]: 25.1 pg
- MEAN CORPUSCULAR HEMOGLOBIN CONCENTRATION [3]: 39.87 G/DL
- MEAN CORPUSCULAR VOLUME [3]: 62.97 fL
- MONOCYTE [3]: 1.33%
- NEUTROPHIL [3]: 3%
- NUCLEATED RED BLOOD CELLS [3]: 0.33 /100WBC
- PLATELET COUNT [3]: 1375.67 x10E3/uL
- ALANINE AMINOTRANSFERASE [3]: 52 u/L
- ALBUMIN [3]: 4.33 G/DL
- ALKALINE PHOSPHATASE [3]: 313.33 u/L
- ASPARTATE AMINOTRANSFERASE [3]: 87.67 u/L
- BLOOD UREA NITROGEN [3]: 18.33 mg/dL
- CARBON DIOXIDE [3]: 35 mmol/L
- CHLORIDE [3]: 100.33 MEQ/L
- CHOLESTEROL [3]: 60.67 mg/dL
- CREATINE PHOSPHOKINASE [3]: 309.33 u/L
- CREATININE [3]: 0.19 mg/dL
- GLUCOSE [3]: 145.33 mg/dL
- LACTATE DEHYDROGENASE [3]: 281 u/L
- LIPASE [3]: 10.33 u/L
- PHOSPHORUS [3]: 11.93 mg/dL
- POTASSIUM [3]: 7.18 MEQ/L
- SODIUM [3]: 145.03 MEQ/L
- TOTAL BILIRUBIN [3]: 0.17 mg/dL
- TOTAL PROTEIN [3]: 6.23 G/DL
- URIC ACID [3]: 1.8 mg/dL
- ABSOLUTE BASOPHIL [4]: 0 CELLS/uL
- ABSOLUTE EOSINOPHIL [4]: 0 CELLS/uL
- ABSOLUTE LYMPHOCYTE [4]: 4768 CELLS/uL
- ABSOLUTE MONOCYTE [4]: 54 CELLS/uL
- ABSOLUTE SEGMENTED NEUTROPHIL [4]: 578 CELLS/uL
- BASOPHIL [4]: 0%
- EOSINOPHIL [4]: 0%
- ERYTHROCYTE COUNT [4]: 5.02 x10E6/uL
- HEMATOCRIT [4]: 31.53%
- HEMOGLOBIN [4]: 12.37 G/DL
- LEUKOCYTE COUNT [4]: 5.4 x10E3/uL
- LYMPHOCYTE [4]: 88.33%
- MEAN CORPUSCULAR HEMOGLOBIN [4]: 24.67 pg
- MEAN CORPUSCULAR HEMOGLOBIN CONCENTRATION [4]: 39.23 G/DL
- MEAN CORPUSCULAR VOLUME [4]: 62.83 fL
- MONOCYTE [4]: 1%
- NEUTROPHIL [4]: 10.67%
- NUCLEATED RED BLOOD CELLS [4]: 0.33 /100WBC
- PLATELET COUNT [4]: 1171 x10E3/uL
- ALANINE AMINOTRANSFERASE [4]: 52.33 u/L
- ALBUMIN [4]: 4.23 G/DL
- ALKALINE PHOSPHATASE [4]: 370.33 u/L
- ASPARTATE AMINOTRANSFERASE [4]: 91.67 u/L
- BLOOD UREA NITROGEN [4]: 16 mg/dL
- CARBON DIOXIDE [4]: 33.67 mmol/L
- CHLORIDE [4]: 99.33 MEQ/L
- CHOLESTEROL [4]: 62 mg/dL
- CREATINE PHOSPHOKINASE [4]: 447.67 u/L
- CREATININE [4]: 0.17 mg/dL
- GLUCOSE [4]: 154 mg/dL
- LACTATE DEHYDROGENASE [4]: 115.33 u/L
- LIPASE [4]: 9.33 u/L
- PHOSPHORUS [4]: 10.83 mg/dL
- POTASSIUM [4]: 6.02 MEQ/L
- SODIUM [4]: 143.23 MEQ/L
- TOTAL BILIRUBIN [4]: 0.23 mg/dL
- TOTAL PROTEIN [4]: 6.03 G/DL
- URIC ACID [4]: 0.8 mg/dL
- ABSOLUTE BASOPHIL [5]: 0 CELLS/uL
- ABSOLUTE EOSINOPHIL [5]: 0 CELLS/uL
- ABSOLUTE LYMPHOCYTE [5]: 13577.67 CELLS/uL
- ABSOLUTE MONOCYTE [5]: 137 CELLS/uL
- ABSOLUTE SEGMENTED NEUTROPHIL [5]: 1018.67 CELLS/uL
- BASOPHIL [5]: 0%
- EOSINOPHIL [5]: 0%
- ERYTHROCYTE COUNT [5]: 5.81 x10E6/uL
- HEMATOCRIT [5]: 36.13%
- HEMOGLOBIN [5]: 14.33 G/DL
- LEUKOCYTE COUNT [5]: 14.73 x10E3/uL
- LYMPHOCYTE [5]: 92%
- MEAN CORPUSCULAR HEMOGLOBIN [5]: 24.7 pg
- MEAN CORPUSCULAR HEMOGLOBIN CONCENTRATION [5]: 39.7 G/DL
- MEAN CORPUSCULAR VOLUME [5]: 62.17 fL
- MONOCYTE [5]: 1%
- NEUTROPHIL [5]: 7%
- NUCLEATED RED BLOOD CELLS [5]: 0 /100WBC
- PLATELET COUNT [5]: 1276.33 x10E3/uL
- ALANINE AMINOTRANSFERASE [5]: 46.33 u/L
- ALBUMIN [5]: 4.3 G/DL
- ALKALINE PHOSPHATASE [5]: 383.33 u/L
- ASPARTATE AMINOTRANSFERASE [5]: 80.67 u/L
- BLOOD UREA NITROGEN [5]: 16 mg/dL
- CARBON DIOXIDE [5]: 31.67 mmol/L
- CHLORIDE [5]: 101.33 MEQ/L
- CHOLESTEROL [5]: 83.33 mg/dL
- CREATINE PHOSPHOKINASE [5]: 216.67 u/L
- CREATININE [5]: 0.17 mg/dL
- GLUCOSE [5]: 166.33 mg/dL
- LACTATE DEHYDROGENASE [5]: 180 u/L
- LIPASE [5]: 9.33 u/L
- PHOSPHORUS [5]: 13.33 mg/dL
- POTASSIUM [5]: 7.09 MEQ/L
- SODIUM [5]: 145.07 MEQ/L
- TOTAL BILIRUBIN [5]: 0.13 mg/dL
- TOTAL PROTEIN [5]: 6.3 G/DL
- URIC ACID [5]: 1.93 mg/dL

From ChEMBL document CHEMBL3885881, “DrugMatrix”
